Data taken from US20220143041A1, “COMBINED THERAPY FOR NMDAR ANTAGONIST-RESPONSIVE NEUROPSYCHIATRIC DISORDERS” (Glytech LLC, priority 2017, published 2022).
Entries after “also recorded” stand apart in the source; their conditions may differ.

Key:
rodent = details: Freynhagen et al.; cited from earlier work
Male BalbC/J mice = assay: Forced swim test (FST), immobility time; type: in vivo; details: for Immobility time in the rodent forced swim test, Mean: 6-min test, IP 30 min prior, DCS 300 mg/kg, mirtazapine or isomer 5 mg/kg, alone or combined; for FST additional beneficial effects in combination with DCS / FST effect of combined antidepressant and DCS vs either agent alone / DCS alone: agent (dose) + DCS 300 mg/kg IP, FIG. 2; for Effect on immobility in the forced swim test vs control: DCS alone
mice [1] = assay: Marble burying test; type: in vivo; details: for Marble burying effect relative to racemic mirtazapine: 1-10 mg/kg IP
From the text: Distance traveled during the test was captured by cameras and quantified using Video Tracker Software (ViewPoint Life Sciences Software, France). At the end of the test mice were removed from the cages and the number of unburied marbles was counted. A marble was considered buried if it was covered at least two thirds with bedding. An effect was considered significant if p<0.05.
from the cages and the number of unburied marbles was counted. A marble was considered buried if it was covered at least two thirds with bedding.
The following compounds were used. […] This compound was dissolved in 20% cyclodextrin and administered IP 30 min prior to test at a dose volume of 10 ml/kg. • Combination DSC (300 mg/kg)+Mirtazapine ([…]) was administered IP as a cocktail in a single injection 30 minutes prior to test at a dose volume of 10 ml/kg.
Mirtazapine is a racemic mix of separate R(−) and S(+) isomers. A follow-up study evaluated the relative effects of the two isomers independently. Methods are the same as for Example 3.

[2] = Pharmacokinetics of D-cycloserine in humans (literature)
[3] = test system: symptoms of major depression; details: 250 mg/day; cited from earlier work
NMDAR = target: T1, NMDAR (Homo sapiens, UniProt Q05586); details: in vivo; cited from earlier work
T1 construct: from tissue; host or cells: endogenous receptors of the treated subject (brain), in vivo

Male C57BL/6J mice = assay: Open field test, locomotor activity; details: vs vehicle
[4] = Pharmacokinetics of D-cycloserine in rodents (plasma level, UPLC/MS/MS); type: in vivo; details: mice
Description: For this study, male C57BL/6J mice (8 weeks old) from Jackson Laboratories (Bar Harbor, Me.) were used.
For each treatment group a total of 12 mice were dosed: 4 mice were collected at 30, 60 and 120 min. Mean plasma level was computed over the 30-60 min time period.

mice [5] = details: mice (Carlsson et al.); cited from earlier work
[6] = cited from earlier work
[7] = FIG. 3, IP 30 min prior, paroxetine 5, mirtazapine 5.5, D-cycloserine 30 and 300 mg/kg, combination 300 + 5.5 mg/kg
[8] = FIG. 4, IP, paroxetine 5, mirtazapine and S-mirtazapine 1, 2.5, 5, 10, R-mirtazapine 10 mg/kg
[9] = 500 mg, corresponding to AUC over 24 hr (Zhu et al.)
[10] = humans, 250 mg PO every 12 hrs (Park et al.)
[11] = humans, 500 mg, fasting (Zhu et al.)
[12] = patients, mean dose 8.8 mg/kg, mostly 500 mg/day (Hung et al.)

## CN1CCN2c3ncccc3Cc3ccccc3C2C1 (racemic) [mirtazapine]
rodent
  Effect in a rodent nociception assay: biphasic effects
Male BalbC/J mice
  Immobility time in the rodent forced swim test, Mean: 92.30 s
  FST additional beneficial effects in combination with DCS: addition beneficial effects
Mice [1]; [7]
  Number of marbles buried compared to vehicle: significantly reduced
Mice [1]; [8]
  Number of marbles buried compared to vehicle: significantly reduced

## N[C@@H]1CON=C1O [DCS, 3-Isoxazolidinone, 4-amino-, (4R)-(9CI)]
[2]; 250 mg PO every 12 hrs, corresponding to AUC over 12 hrs (Park et al.)
  Mean plasma level: 20.2 microgram/mL
[2]; [9]
  Median sustained plasma level: 8.9 microgram/mL
  Sustained plasma level, range: 6.8-14.7 microgram/mL
[3]
  Effect on symptoms of major depression: without significant effect
NMDAR
  Plasma concentrations associated with antagonist effects: > 25 µg/mL
  Plasma concentrations associated with primarily agonist effects: < 10 µg/mL
  Plasma levels with increased liability for toxicity: > 35000 ng/mL
Male C57BL/6J mice; DCS 30 mg/kg IP
  Mean distance travelled over 30 min (locomotor activity): 4432.1
Male C57BL/6J mice; DCS 30 mg/kg IP, listed as D-cycloserine
  Mean distance travelled over 30 min (locomotor activity): not significantly affected
Male C57BL/6J mice; DCS 300 mg/kg IP
  Mean distance travelled over 30 min (locomotor activity): 7588.5
Male C57BL/6J mice; DCS 300 mg/kg IP, listed as D-cycloserine
  Mean distance travelled over 30 min (locomotor activity): significantly increased
Male C57BL/6J mice; DCS 1000 mg/kg IP
  Mean distance travelled over 30 min (locomotor activity): 9049.8
Male C57BL/6J mice; DCS 1000 mg/kg IP, listed as D-cycloserine
  Mean distance travelled over 30 min (locomotor activity): significantly increased
[4]; D-cycloserine 30 mg/kg IP
  Mean plasma levels over 30-60 min: below 25 microgram/mL
[4]; D-cycloserine 30 mg/kg IP, listed as D-cycloserine
  Mean plasma levels over 30-60 min: 24.89 microgram/mL
[4]; D-cycloserine 100 mg/kg IP
  Mean plasma levels over 30-60 min: 74.92 microgram/mL
[4]; D-cycloserine 500 mg/kg IP
  Mean plasma levels over 30-60 min: 375.44 microgram/mL
[4]; D-cycloserine 1000 mg/kg IP
  Mean plasma levels over 30-60 min: 510.73 microgram/mL
[4]; male, C57BL/6J, mouse, in vivo, IP, read-out: Maximum tolerated dose
  MTD: 500 to 1000 mg/kg
[4]; suggested from maximum tolerated dose
  Maximum tolerated blood level: approximately 500 ug/mL
Mice [5]
  Effect on locomotor stimulation by a low dose of MK-801: potentiated
Male BalbC/J mice
  Immobility time in the rodent forced swim test, Mean: 42.08 s
Male BalbC/J mice; 30 mg/kg (FIG. 1, PO)
  Effect on immobility in the forced swim test vs control: no significant effect
Male BalbC/J mice; doses of 100 mg/kg or above (FIG. 1, PO)
  Effect on immobility in the forced swim test vs control: statistically significant (p<0.001) reduction
[6]; [10]
  Mean AUC over 12 hrs: 242.3 µg·h/mL
  Mean Cmax: 24.9 microgram/mL
[6]; [11]
  AUC over 24 hr, range: 163-352 microgram-hr/mL
  Cmax, range: 12.1-30.6 microgram/mL
  Median AUC over 24 hr: 214 microgram-hr/mL
  Median Cmax: 14.8 microgram/mL
[6]; humans, summary of PK studies
  Sustained plasma level following 500 mg administration: below 25 microgram/mL
[6]; [12]
  DCS concentration at 2 hr after dosing: 19.7 microgram/mL
  DCS concentration at 6 hr after dosing: 18.1 microgram/mL
Mice [1]; [7]
  Number of marbles buried compared to vehicle: did not affect

## Fc1ccc([C@@H]2CCNC[C@H]2COc2ccc3c(c2)OCO3)cc1 [Paroxetine]
Mice [1]; [7]
  Number of marbles buried compared to vehicle: significantly reduced
Mice [1]; [8]
  Number of marbles buried compared to vehicle: significantly reduced

## CN1CCN2c3ncccc3Cc3ccccc3[C@@H]2C1 [R-mirtazapine, R(−)mirtazapine]
rodent
  Effect in a rodent nociception assay: only anti-nociceptive effects
Male BalbC/J mice; 5 mg/kg, in absence and presence of DCS, not statistically different
  FST reduction in immobility, R- vs racemic mirtazapine: numerically greater
Male BalbC/J mice
  Immobility time in the rodent forced swim test, Mean: 68.40 s
Mice [1]; FIG. 4
  Marble burying effect relative to racemic mirtazapine: less robust
Mice [1]; [8]
  Number of marbles buried compared to vehicle: significantly reduced
Mice [1]; FIG. 4, R-mirtazapine 1, 2.5 and 5 mg/kg IP
  Number of marbles buried compared to vehicle: did not affect
Mice [1]; FIG. 4 legend
  Relative effects of R- and S-isomers of mirtazapine on marble burying (FIG. 4 legend): greater effects of R- vs S-isomer

## CN1CCN2c3ncccc3Cc3ccccc3[C@H]2C1 [S-mirtazapine, S(+)mirtazapine]
rodent
  Effect in a rodent nociception assay: pro-nociceptive effects
Male BalbC/J mice
  Immobility time in the rodent forced swim test, Mean: 117.60 s
Mice [1]; FIG. 4
  Marble burying effect relative to racemic mirtazapine: significantly more robust
Mice [1]; [8]
  Number of marbles buried compared to vehicle: significantly reduced
Mice [1]; IP 30 min prior
  Number of marbles buried, combination with DSC 300 mg/kg vs agent 2.5 mg/kg alone: floor level effects

## CC(NC(C)(C)C)C(=O)c1cccc(Cl)c1 (centres unmarked) [bupropion]
Male BalbC/J mice
  FST additional beneficial effects in combination with DCS: addition beneficial effects
  FST effect of combined antidepressant and DCS vs either agent alone / DCS alone: significantly larger than with either agent alone; also recorded: effects greater than DCS alone

## CNCC[C@H](Oc1cccc2ccccc12)c1cccs1 [duloxetine]
Male BalbC/J mice
  FST additional beneficial effects in combination with DCS: addition beneficial effects
  FST effect of combined antidepressant and DCS vs either agent alone / DCS alone: significantly larger than with either agent alone; also recorded: effects greater than DCS alone

## CNCCC(Oc1ccc(C(F)(F)F)cc1)c1ccccc1 (centres unmarked) [fluoxetine]
Male BalbC/J mice
  FST additional beneficial effects in combination with DCS: addition beneficial effects

## CN[C@H]1CC[C@@H](c2ccc(Cl)c(Cl)c2)c2ccccc21 [sertraline]
Male BalbC/J mice
  FST additional beneficial effects in combination with DCS: addition beneficial effects
  FST effect of combined antidepressant and DCS vs either agent alone / DCS alone: significantly larger than with either agent alone; also recorded: effects greater than DCS alone

## COc1ccc(C(CN(C)C)C2(O)CCCCC2)cc1 (centres unmarked) [venlafaxine]
Male BalbC/J mice
  FST additional beneficial effects in combination with DCS: addition beneficial effects

## Cc1ccc(Sc2ccccc2N2CCNCC2)c(C)c1 [vortioxetine]
Male BalbC/J mice
  FST additional beneficial effects in combination with DCS: addition beneficial effects
